The values that follow come from PMC8402547, “In Vitro and In Vivo Analysis of Ochratoxin A-Derived Glucuronides and Mercapturic Acids as Biomarkers of Exposure” (Toxins, 2021).

The nature of data set [1]: In vitro incubation of OTA with liver S9 in the presence of GSH or NAC. It counts as in vitro ADME, rat. Particulars: for Time-dependent formation from OTA: rat liver S9, with NADPH regenerating system, GSH or NAC 5 mM, t = 0, 60, 120 min; for Formation from OTA in the absence of the NADPH regenerating system: rat liver S9, no NADPH regenerating system. Here is the method: (§1) Liver S9 fractions from rats (Sprague-Dawley, male, 97 donors, 20 mg/mL) and humans (mixed genders, 50 donors, 20 mg/mL) were obtained from XenoTech (Kansas City, USA). S9 fractions from Goettingen® minipigs and rabbits were prepared in-house based on a modified protocol from Hubbard et al. (1985). Rabbit liver (Blue Vienna x German Giant, female) was obtained from ImmonuGlobe (Himmelstadt, Germany), whereas minipig liver (Goettingen® minipig, male, 42.4 kg bw) was obtained from the University Goettingen, Department of Animal Science.
(§2) For analysis of OTA-derived GSH and NAC conjugates, liver S9 fractions (4 mg/mL) of rats, rabbits, minipigs and humans were incubated with OTA (0.1 mM), GSH or NAC (5 mM) and an NADPH regenerating system (NADP (5 mM), glucose-6-phosphate (5 mM), glucose-6-phosphate-dehydrogenase (1.25 units/mL)) in 100 mM phosphate-buffered saline (pH 7.4) in a total volume of 300 µL at 37 °C for two hours. Control incubations were carried out a) in the absence of GSH/NAC and b) in the absence of the NADPH regenerating system. Aliquots (100 µL) were removed immediately (t = 0) as well as after 60 (t = 60) and 120 (t = 120) minutes, and the enzymatic reaction was stopped by addition of 200 µL ACN and centrifugation (20 min, 4 °C, 20,000× g). The supernatants were removed and stored at −80 °C until further analysis.
(§3) LC–MS/MS analyses were performed on an Agilent 1100 series LC coupled to an API 2000/Q-Trap mass spectrometer (Applied Biosystems/MDS Sciex, Concord, Canada). Samples were injected into the LC–MS/MS system through an Agilent 1100 series autosampler. Separations were carried out on a ReproSil-Pur C18 AQ column (2 mm × 150 mm, 5 µm; Dr. Maisch; Ammerbuch, Germany). Gradient elution of OTA-derived metabolites was carried out with water + 0.1% formic acid (solvent A) and acetonitrile (solvent B). Initially, solvent A was held isocratic for 5 min at 100%, followed by a linear gradient to 95% B in 5 min. These conditions were held for further 5 min. Within 1 min, the gradient decreased linearly to 0% B and remained at initial conditions until the end of analysis (30 min). A flow rate of 0.2 mL/min was used. For each run, 10 µL of the respective sample were injected by the autosampler.
(§4) The API 2000/Q-Trap mass spectrometer was operated with a Turbo Ion Spray source in negative ion mode with a voltage of −4000 V. Spectral data were recorded with N2 as the heater gas at 450 °C and as the collision gas (CAD = −2) in multiple reaction monitoring mode (MRM).
(§5) In addition to MRM, constant neutral loss of 129 amu in the negative ion mode based on the characteristic fragmentation pattern of mercapturic acids was used to screen for N-acetyl-cysteine conjugates of OTA. Furthermore, constant neutral loss of 176 amu in positive ion mode based on the fragmentation pattern of glucuronic acid conjugates was used to screen for OTA glucuronides.

Assay in data set [2]: as above
It counts as in vitro ADME, rabbit. Particulars: for Time-dependent formation from OTA: rabbit liver S9, with NADPH regenerating system, GSH or NAC 5 mM, t = 0, 60, 120 min; for Formation from OTA in the absence of the NADPH regenerating system: rabbit liver S9, no NADPH regenerating system. Here is the method: as §1, §2, §3, §4, §5

Assay in data set [3]: as above
The format is in vitro ADME, minipig. Particulars: for Time-dependent formation from OTA: minipig liver S9, with NADPH regenerating system, GSH or NAC 5 mM, t = 0, 60, 120 min; for Formation from OTA in the absence of the NADPH regenerating system: minipig liver S9, no NADPH regenerating system. Here is the method:
as §1, §2, §3, §4, §5

Assay in data set [4]: as above
It counts as in vitro ADME, human. The following applies: for Time-dependent formation from OTA: human liver S9, with NADPH regenerating system, GSH or NAC 5 mM, t = 0, 60, 120 min. As for the experimental part:
as §1, §2, §3, §4, §5

Data set [5] is described as follows: Direct LC–MS/MS analysis of OTA metabolites in urine of OTA-treated rats. It counts as in vivo, male F344/N rats. Particulars: OTA up to 2 mg/kg bw, negative ionization mode. Here is the method: Archived urine samples from previous repeated dose oral toxicity studies on OTA in male F344/N rats were used. The studies were performed according to national animal welfare regulations after authorization by the local authorities (Regierung von Unterfranken, AZ 621-2531.01-9/98 and AZ 54-2531.01-59/05).
14-day study: Male F344 rats (170–190 g) were purchased from Charles-River Laboratories, Sulzfeld, Germany. Animals had free access to water and standard diet (Altromin) and were kept under standard conditions (12 h day/night cycle, temperature 21–23 °C, humidity 45–55%). Rats were transferred to metabolic cages (Tecniplast Metabolic Cage—Rats Over 300 g; Tecniplast, Italy) for collection of urine 3 days prior to dosing. Animals were administered OTA dissolved in corn oil by oral gavage at 0, 0.25, 0.5, 1.0 and 2.0 mg/kg bw for 2 weeks (5 days per week). Urine was collected every 12 h on day 1 of treatment and every 24 h thereafter on ice, aliquoted and stored at −20 °C until further analysis.
90-day study: Male F344/N rats (6–7 weeks old) were purchased from Harlan-Winkelmann, Borchen, Germany. Animals were housed in groups of 5 in Macrolon type-4 cages and allowed free access to pelleted standard rat maintenance diet (SSNIFF, Soest, Germany) and tap water. After a week of acclimatization, rats (n = 5/dose) were exposed to OTA dissolved in corn oil by oral gavage at doses of 0, 21, 70 or 210 µg/kg bw for 2, 4 or 13 weeks (5 days per week). For urine collection, animals were transferred into metabolic cages (Tecniplast Metabolic Cage—Rats Over 300 g; Tecniplast, Italy) 48 h prior to necropsy and fasted for 20 h but allowed free access to tap water. Urine was collected for 24 h on ice, aliquoted and stored at −20 °C until further analysis.
Urine samples were diluted with acetonitrile (2:1), vortexed and cleared via centrifugation (4 °C, 15 min., 2000× g) to precipitate proteins. Of the resulting supernatant, 10 µL were injected into the LC–MS system and analyzed using the method described below.
as §3, §4, §5

Take `C[C@H]1OC(=O)c2c(ccc(C(=O)N[C@@H](Cc3ccccc3)C(=O)O)c2O)[C@H]1O` [4-hydroxy-OTB]: the “Time-dependent formation from OTA” value in data set [1], in data set [2], in data set [3] and in data set [4] was “not observed” each time.
With `C[C@@H](O)Cc1c(Cl)cc(C(=O)N[C@@H](Cc2ccccc2)C(=O)O)c(O)c1C(=O)O` [OP-OTA], in data set [5], the “Detection in urine of OTA-treated rats by direct LC–MS/MS (MRM)” value (“Detection in urine of OTA-treated rats” below) was “traces”. The “Formation from OTA in the absence of the NADPH regenerating system” value in data set [1] is on record as “not formed”; in data set [2], “not formed”; in data set [3], “not formed”; in data set [4] (human liver S9, no NADPH regenerating system), “not formed”. In addition, the “Time-dependent formation from OTA” value in data set [1] and in data set [3] was “observed” throughout.
With `C[C@@H]1Cc2c(SC[C@H](NC(=O)CC[C@H](N)C(=O)O)C(=O)NCC(=O)O)cc(C(=O)N[C@@H](Cc3ccccc3)C(=O)O)c(O)c2C(=O)O1` [OTB-GSH], the “Time-dependent formation from OTA” value in data set [1], in data set [2], in data set [3] and in data set [4] was “not evident” in each case.
With `CC(=O)NC(CSc1cc(C(=O)N[C@@H](Cc2ccccc2)C(=O)O)c(O)c2c1C[C@@H](C)OC2=O)C(=O)O` (stereo partly drawn) [OTB-NAC], the “Detection in urine of OTA-treated rats” value in data set [5] is “did not confirm the presence”. Besides, the “Time-dependent formation from OTA” value in data set [1], in data set [2], in data set [3] and in data set [4] was “not evident” each time.
As to `C[C@@H]1Cc2ccc(C(=O)N[C@@H](Cc3ccccc3)C(=O)O)c(O)c2C(=O)O1` [OTB], the “Time-dependent formation from OTA” value in data set [1], in data set [2], in data set [3] and in data set [4] was “no time-dependent increase” in each case.
Take `C[C@@H]1Cc2c(O)c(SC[C@H](NC(=O)CC[C@H](N)C(=O)O)C(=O)NCC(=O)O)c(C(=O)N[C@@H](Cc3ccccc3)C(=O)O)c(O)c2C(=O)O1` [OTHQ-GSH]: the “Formation from OTA in the absence of the NADPH regenerating system” value in data set [1], in data set [2] and in data set [3] was “detected” each time. Moreover, the “Time-dependent formation from OTA” value in data set [1], in data set [2], in data set [3] and in data set [4] was “not evident” in each case.
In the case of `CC(=O)NC(CSc1c(O)c2c(c(O)c1C(=O)N[C@@H](Cc1ccccc1)C(=O)O)C(=O)O[C@H](C)C2)C(=O)O` (stereo partly drawn) [OTHQ-NAC], the “Detection in urine of OTA-treated rats” value in data set [5] is “not detected”. For the same compound, the “Time-dependent formation from OTA” value in data set [1], in data set [2], in data set [3] and in data set [4] was “not evident” each time.
In the case of `C[C@@H]1Cc2c(O)cc(C(=O)N[C@@H](Cc3ccccc3)C(=O)O)c(O)c2C(=O)O1` [OTHQ], the “Detection in urine of OTA-treated rats” value in data set [5] was “not detected”. The “Time-dependent formation from OTA” value in data set [1], in data set [2], in data set [3] and in data set [4] was “not observed” each time.
Turning to `C[C@@H]1Cc2c(Cl)cc(C(=O)O)c(O)c2C(=O)O1` [OTalpha], the “Detection in urine of OTA-treated rats” value in data set [5] was “consistently found”.
